Experimental data: publication PMC4754331, “Programming of metabolic effects in C57BL/6JxFVB mice by in utero and lactational exposure to perfluorooctanoic acid” (Archives of Toxicology, 2015)
Where “and” joins values, the source holds several entries; their conditions need not be identical. Identical values can stand only once.

Key:
C57BL/6JxFVB hybrid mice [1] = assay: Serum lipids and glucose; settings: for Emax: Mus musculus
C57BL/6JxFVB hybrid mice [2] = assay: Body size, organ and fat pad weights at necropsy; settings: for Emax: Mus musculus
[3] = ref EFSA [2012]; EFSA [2008]; cited from earlier work
C57BL/6JxFVB hybrid mice [4] = assay: Offspring body weight and growth after perinatal exposure; assay type: in vivo; design: key to Time of effect: P: permanent effect on body weight throughout study; D: delayed (late onset) of effect; T: transient effect; E: effect observed during treatment; settings: for Emax: Mus musculus
Description: PFOA was obtained as sodium perfluoro-n-octanoate (PFOA-Na; CAS No. 335-95-5, purity >99 %) and kindly provided by Wellington Laboratories Inc., Ontario, Canada. PFOA-Na was dissolved in acetone and mixed with the diet (NIH-07, Research Diet Services, Wijk bij Duurstede, The Netherlands). Thereafter, acetone was allowed to evaporate, and this master mixture was serially diluted with a factor 3–3.3 by adding NIH-07, and afterward, the diet was pelleted. In this way, seven diet groups and a control NIH-07 (blank acetone was added) were obtained, aiming at concentrations of 0, 0.017, 0.056, 0.17, 0.56, 1.7, 5.6 and 17 mg/kg PFOA in feed, which corresponded to 0, 3, 10, 30, 100, 300, 1000 and 3000 µg/kg bw based on an average food consumption of 4.5 g per mouse (average body weight of 25 g) per day. PFOA concentrations in test diets were confirmed by isotope dilution liquid chromatography mass spectrometry after extraction with methanol (8402, JT Baker, Deventer the Netherlands) and a cleanup with carbon solid phase extraction (ENVI Carb, 57210-U, Supelco, Zwijndrecht, the Netherlands). Actual PFOA concentrations in the food were 15–30 % lower than the nominal values. The non-purified soy-based NIH-07 was chosen because it was originally designed to optimize gestation, lactation and growth of rodents, and avoiding natural phytoestrogens in the diet may have confounding effects (Ruhlen et al. [2008]). Estrogenic and anti-estrogenic activity for this diet was previously analyzed to be low and absent, respectively (van Esterik et al. [2014]).
A high fat diet (D12451, Research Diet Services, Wijk bij Duurstede, The Netherlands), containing 45 kcal % fat (lard) compared with 15 kcal % fat in the NIH-07 diet, was given to all F1 mice during the final weeks of the study (21–28 weeks of age).
After an acclimatization period of 1 week, female F0 mice were fed experimental diets explained above starting 2 weeks before mating and continued during mating (1 week), gestation (3 weeks) and lactation (3 weeks). Each dose group had six F0 females, which were mated three by three with two F0 males for each dose group. […] For every dose group, on average 9 mice per sex (range 6–10) were included for follow-up through juvenile and adult stages, selecting pups proportionally from available litters. F1 males were single-housed, and F1 females were housed in pairs from the same litter in standard Macrolon type I cages. Body weight was measured at postnatal day (PND) 4, 7, 14 and 21 and weekly from 5 weeks of age continuing until the end of the study. Food consumption could not be recorded reliably due to high spillage.
Growth was calculated by dividing body weight of subsequent weeks by body weight at week 5, i.e., at the start of the F1 follow-up.

[5] = cited from earlier work
C57BL/6JxFVB hybrid mice [6] = assay: Glucose tolerance test; assay type: in vivo; settings: males and females; 300 µg/kg vs control; 19 weeks; data not shown
Description: One week later, at 20 weeks of age, an insulin tolerance test (ITT) was performed in the same animals as used for the GTT. Mice were not fasted to avoid low glucose baseline levels which, after an insulin injection, could lead to hypoglycemia. At the start of the experiment, a baseline blood sample was taken (0 min). […] The experiment was performed over two morning sessions, with 1.75 h between the first and last tested animal in each session, and animals were treated in a random order. At the age of 22–25 weeks, control and 300 µg/kg bw/d animals were used for a spontaneous locomotor activity test. After an acclimatization period of minimal 6 h, activity of the mice was continuously registered on four parallel platforms for 36 h (males) or 60 h (females), starting at the beginning of the dark phase (6.30 PM) of the first day.
Some measurements included only control and one or two dose groups and could therefore not be analyzed as dose–responses. GTT was therefore evaluated by repeated-measures or nested (to account for litter covariance) two-way ANOVAs (Graphpad Prism 5.0, R) to detect differences at the different time points and between the areas under the curve (AUC). Activity measurement, ucp1 expression, WAT adipocyte size and the proxy for cell number were also tested with a nested ANOVA (R). […]

[7] = C57BL/6JxFVB, 3-10-30-100-300-1000-3000 µg/kg bw/d, diet, 2w pre-mating-PND21, this study
[8] = F1 females, CES 5 %, high fat diet

SMILES: O=C(O)C(F)(F)C(F)(F)C(F)(F)C(F)(F)C(F)(F)C(F)(F)C(F)(F)F [PFOA, Perfluorooctanoic acid]
- Serum triglycerides: BMDU/BMDL (C57BL/6JxFVB hybrid mice [1]; F1 females): 100
- Serum cholesterol: BMDL (C57BL/6JxFVB hybrid mice [1]; F1 females, CES 5 %): 402 µg/kg bw/d
- Serum cholesterol: BMDU (C57BL/6JxFVB hybrid mice [1]; F1 females, CES 5 %): 1284 µg/kg bw/d
- Serum triglycerides: BMDL (C57BL/6JxFVB hybrid mice [1]; F1 females, CES 5 %): 6.2 µg/kg bw/d
- Serum triglycerides: BMDU (C57BL/6JxFVB hybrid mice [1]; F1 females, CES 5 %): 623 µg/kg bw/d
- Emax (C57BL/6JxFVB hybrid mice [1]; read-out: Serum cholesterol: max effect size): -20%
- Emax (C57BL/6JxFVB hybrid mice [1]; read-out: Serum triglycerides: max effect size): -27%
- Other relevant effects of PFOA (C57BL/6JxFVB hybrid mice [2]; [7]): F: ↓ fat pad weights; ↓ serum cholesterol; ↓ serum triglycerides
- Perirenal fat pad weight: BMDL corrected for measured levels of PFOA in the feed (15–30 % lower than nominal) (C57BL/6JxFVB hybrid mice [2]; F1 females): 46–55 µg/kg bw/d and 46 µg/kg bw/d
- Femur length: BMDL (C57BL/6JxFVB hybrid mice [2]; F1 females, CES 5 %): 2423 µg/kg bw/d
- Femur length: BMDU (C57BL/6JxFVB hybrid mice [2]; F1 females, CES 5 %): 6999 µg/kg bw/d
- Femur weight: BMDL (C57BL/6JxFVB hybrid mice [2]; F1 females, CES 5 %): 989 µg/kg bw/d
- Femur weight: BMDU (C57BL/6JxFVB hybrid mice [2]; F1 females, CES 5 %): 5060 µg/kg bw/d
- Perirenal fat pad weight: BMDL (C57BL/6JxFVB hybrid mice [2]; F1 females, CES 5 %): 65 µg/kg bw/d
- Perirenal fat pad weight: BMDU (C57BL/6JxFVB hybrid mice [2]; F1 females, CES 5 %): 362 µg/kg bw/d
- Quadriceps femoris muscle weight: BMDL (C57BL/6JxFVB hybrid mice [2]; F1 females, CES 5 %): 432 µg/kg bw/d
- Quadriceps femoris muscle weight: BMDU (C57BL/6JxFVB hybrid mice [2]; F1 females, CES 5 %): 1356 µg/kg bw/d
- Emax (C57BL/6JxFVB hybrid mice [2]; read-out: Femur length: max effect size, F1 females): -4.2%
- Emax (C57BL/6JxFVB hybrid mice [2]; read-out: Femur weight: max effect size, F1 females): -8.6%
- Emax (C57BL/6JxFVB hybrid mice [2]; read-out: Liver weight: max effect size, F1 males): 16%
- Emax (C57BL/6JxFVB hybrid mice [2]; read-out: Perigonadal fat pad weight: max effect size, F1 females): -56%
- Emax (C57BL/6JxFVB hybrid mice [2]; read-out: Perirenal fat pad weight: max effect size, F1 females): -57%
- Emax (C57BL/6JxFVB hybrid mice [2]; read-out: Quadriceps femoris muscle weight: max effect size, F1 females): -19%
- Emax (C57BL/6JxFVB hybrid mice [2]; read-out: Tibia length: max effect size, F1 females, exponential modeling only): -5%
- Emax (C57BL/6JxFVB hybrid mice [2]; read-out: Tibia length: max effect size, F1 males): -1.6%
- Developmental BMDL of 46 µg/kg bw/d: times lower than the BMDL10 of 300 µg/kg bw/d used for the TDI (C57BL/6JxFVB hybrid mice [2]; mouse, in vivo): 6.5 times
- Tolerable daily intake (TDI) [3]: 1.5 µg/kg bw/d
- Endpoint bw (age) F (C57BL/6JxFVB hybrid mice [4]; [7]): ↓ PND4–w27
- Endpoint bw (age) M (C57BL/6JxFVB hybrid mice [4]; [7]): ↓ PND4–w23
- Time of effect (C57BL/6JxFVB hybrid mice [4]; C57BL/6JxFVB, this study, in males not observed during final 2 weeks (w24–25) under high fat diet): P^d
- Body weight week 21: BMDL (C57BL/6JxFVB hybrid mice [4]; F1 females, CES 5 %): 1239 µg/kg bw/d
- Body weight week 21: BMDU (C57BL/6JxFVB hybrid mice [4]; F1 females, CES 5 %): 3595 µg/kg bw/d
- Body weight week 27: BMDL (C57BL/6JxFVB hybrid mice [4]; [8]): 849 µg/kg bw/d
- Body weight week 27: BMDU (C57BL/6JxFVB hybrid mice [4]; [8]): 5645 µg/kg bw/d
- Body weight week 21: BMDL (C57BL/6JxFVB hybrid mice [4]; F1 males, CES 5 %): 1024 µg/kg bw/d
- Body weight week 21: BMDU (C57BL/6JxFVB hybrid mice [4]; F1 males, CES 5 %): 3457 µg/kg bw/d
- Growth week 25/5: BMDL (C57BL/6JxFVB hybrid mice [4]; F1 males, CES 5 %): 948 µg/kg bw/d
- Growth week 25/5: BMDU (C57BL/6JxFVB hybrid mice [4]; F1 males, CES 5 %): 2383 µg/kg bw/d
- Emax (C57BL/6JxFVB hybrid mice [4]; F1 females, read-out: Body weight week 21: max effect size): -8%
- Emax (C57BL/6JxFVB hybrid mice [4]; F1 females, read-out: Body weight week 27: max effect size): -9.1%
- Emax (C57BL/6JxFVB hybrid mice [4]; F1 females, read-out: Growth week 27/5: max effect size): -8.6%
- Emax (C57BL/6JxFVB hybrid mice [4]; F1 males, read-out: Body weight week 21: max effect size): -9.1%
- Emax (C57BL/6JxFVB hybrid mice [4]; F1 males, read-out: Growth week 25/5: max effect size): 11%
- Body weight PND4: CED (C57BL/6JxFVB hybrid mice [4]; females, CES −0.05, Fig. 2c): 0.0628 µg/kg body weight/day
- Body weight PND4: CEDLbt (C57BL/6JxFVB hybrid mice [4]; females, CES −0.05, Fig. 2c): 2.004e−08 µg/kg body weight/day
- Body weight PND4: CEDUbt (C57BL/6JxFVB hybrid mice [4]; females, CES −0.05, Fig. 2c): 42.23 µg/kg body weight/day
- Body weight week 27: CED (C57BL/6JxFVB hybrid mice [4]; females, CES −0.05, Fig. 2d): 1560 µg/kg body weight/day
- Body weight week 27: CEDLbt (C57BL/6JxFVB hybrid mice [4]; females, CES −0.05, Fig. 2d): 849.1 µg/kg body weight/day
- Body weight week 27: CEDUbt (C57BL/6JxFVB hybrid mice [4]; females, CES −0.05, Fig. 2d): 5645 µg/kg body weight/day
- Body weight from PND4 until adulthood (week 21) (C57BL/6JxFVB hybrid mice [4]; females, standard diet): dose-dependently decreased
- Body weight at PND4 (C57BL/6JxFVB hybrid mice [4]; males): dose-dependent decrease
- Body weight PND4: CEDLbt (C57BL/6JxFVB hybrid mice [4]; males, CES −0.05, Fig. 2a): 1e−12 µg/kg body weight/day
- Body weight PND4: CEDUbt (C57BL/6JxFVB hybrid mice [4]; males, CES −0.05, Fig. 2a): 42.23 µg/kg body weight/day
- Body weight PND4: CED (C57BL/6JxFVB hybrid mice [4]; males, CES −0.05, Fig. 2a, unit from legend): 0.0039 µg/kg body weight/day
- Body weight in weeks 22 and 23 (C57BL/6JxFVB hybrid mice [4]; males, high fat diet, data not shown): dose-dependent decrease
- Level in adult human serum samples ([5]; detected globally, ref Calafat et al. [2007]): 3.6 to 4.3 ng/mL
- Level in serum of pregnant mothers ([5]; ref Grandjean et al. [2012]): 2.6 to 4.0 ng/mL
- Level in cord plasma ([5]; ref de Cock et al. [2014]): 0.3 to 2.7 ng/mL
- Glucose homeostasis: GTT (C57BL/6JxFVB hybrid mice [6]): did not show an effect
